From publication PMC9321339, “Characterization in Inhibitory Effectiveness of Carbamazepine in Voltage-Gated Na^+ and Erg-Mediated K^+ Currents in a Mouse Neural Crest-Derived (Neuro-2a) Cell Line” (International Journal of Molecular Sciences, 2022)
Read-outs that look alike come from different tables or passages of the source.

Test system: T1, voltage-gated Na+ (NaV) channels / INa in Neuro-2a cells (mainly NaV1.2, 1.3, 1.4 and 1.7)
T1 construct: gene Scn2a
Type: cell-based
Conditions: step -100 to -10 mV, 30 ms, Ca2+-free Tyrode with 10 mM TEA, 0.5 mM CdCl2, 20-25 °C

SMILES: NC(=O)N1c2ccccc2C=Cc2ccccc21 [Carbamazepine, 5H-dibenzo[b,f]azepine-5-carboxamide]
- IC50 (late (sustained) INa(L)): 18 µM
- IC50 (peak (transient) INa(T)): 56 µM
